What all share (format): physicochemical
Details in all cases: buffer

Data set [1] in a line: Chemical stability assessed as half life at pH 6.0.
A short description of data set [2]: Chemical stability assessed as half life at pH 6.5.
A short description of data set [3]: Chemical stability assessed as half life at pH 7.0.

These results are taken from ChEMBL document CHEMBL1140688, “Sulfenamides as prodrugs of NH-acidic compounds: a new prodrug option for the amide bond” (Bioorg Med Chem Lett, 2007).

Each structure is given as a SMILES string.

Usually half-life stands for the time needed for the level to fall by half in the phase considered. For `CCOC(=O)[C@@H](N)CSNC(=O)N1c2ccccc2C=Cc2ccccc21`, the half-life in data set [1] is 214 h; in data set [2], 81.6 h; in data set [3], 50.4 h.
